Earlier results, collected in patent US20090098173A1, “TOPICAL PAIN RELIEF PRODUCT” (priority 2007, published 2009).

Settings: as described in U.S. Pat. No. 7,189,760 / 7,030,273

CCOC(=O)CNC(=O)C1CC(C)CCC1C(C)C (stereo not shown) [ethyl ester of N-[[5-methyl-2-(1-methylethyl)cyclohexyl]carbonyl]glycine]
physiological cooling activity: substantially high physiological cooling activity
